Here are results for two molecules from publication PMC12408707, “Daunorubicin and its hydroxy metabolite in cardiomyocytes: insights into cellular kinetics, toxicity, DNA damage, and dexrazoxane-induced cardioprotection” (Archives of Toxicology, 2025).

This test addresses T1, topoisomerase IIβ (TOP2B) (Homo sapiens, UniProt Q02880).
T1 construct: recombinant human TOP2B enzyme (Inspiralis)
As to the kind of experiment: kDNA decatenation assay with recombinant human TOP2B, agarose gel. In kind it is biochemical.

T1 sequence (Q02880 2-1626): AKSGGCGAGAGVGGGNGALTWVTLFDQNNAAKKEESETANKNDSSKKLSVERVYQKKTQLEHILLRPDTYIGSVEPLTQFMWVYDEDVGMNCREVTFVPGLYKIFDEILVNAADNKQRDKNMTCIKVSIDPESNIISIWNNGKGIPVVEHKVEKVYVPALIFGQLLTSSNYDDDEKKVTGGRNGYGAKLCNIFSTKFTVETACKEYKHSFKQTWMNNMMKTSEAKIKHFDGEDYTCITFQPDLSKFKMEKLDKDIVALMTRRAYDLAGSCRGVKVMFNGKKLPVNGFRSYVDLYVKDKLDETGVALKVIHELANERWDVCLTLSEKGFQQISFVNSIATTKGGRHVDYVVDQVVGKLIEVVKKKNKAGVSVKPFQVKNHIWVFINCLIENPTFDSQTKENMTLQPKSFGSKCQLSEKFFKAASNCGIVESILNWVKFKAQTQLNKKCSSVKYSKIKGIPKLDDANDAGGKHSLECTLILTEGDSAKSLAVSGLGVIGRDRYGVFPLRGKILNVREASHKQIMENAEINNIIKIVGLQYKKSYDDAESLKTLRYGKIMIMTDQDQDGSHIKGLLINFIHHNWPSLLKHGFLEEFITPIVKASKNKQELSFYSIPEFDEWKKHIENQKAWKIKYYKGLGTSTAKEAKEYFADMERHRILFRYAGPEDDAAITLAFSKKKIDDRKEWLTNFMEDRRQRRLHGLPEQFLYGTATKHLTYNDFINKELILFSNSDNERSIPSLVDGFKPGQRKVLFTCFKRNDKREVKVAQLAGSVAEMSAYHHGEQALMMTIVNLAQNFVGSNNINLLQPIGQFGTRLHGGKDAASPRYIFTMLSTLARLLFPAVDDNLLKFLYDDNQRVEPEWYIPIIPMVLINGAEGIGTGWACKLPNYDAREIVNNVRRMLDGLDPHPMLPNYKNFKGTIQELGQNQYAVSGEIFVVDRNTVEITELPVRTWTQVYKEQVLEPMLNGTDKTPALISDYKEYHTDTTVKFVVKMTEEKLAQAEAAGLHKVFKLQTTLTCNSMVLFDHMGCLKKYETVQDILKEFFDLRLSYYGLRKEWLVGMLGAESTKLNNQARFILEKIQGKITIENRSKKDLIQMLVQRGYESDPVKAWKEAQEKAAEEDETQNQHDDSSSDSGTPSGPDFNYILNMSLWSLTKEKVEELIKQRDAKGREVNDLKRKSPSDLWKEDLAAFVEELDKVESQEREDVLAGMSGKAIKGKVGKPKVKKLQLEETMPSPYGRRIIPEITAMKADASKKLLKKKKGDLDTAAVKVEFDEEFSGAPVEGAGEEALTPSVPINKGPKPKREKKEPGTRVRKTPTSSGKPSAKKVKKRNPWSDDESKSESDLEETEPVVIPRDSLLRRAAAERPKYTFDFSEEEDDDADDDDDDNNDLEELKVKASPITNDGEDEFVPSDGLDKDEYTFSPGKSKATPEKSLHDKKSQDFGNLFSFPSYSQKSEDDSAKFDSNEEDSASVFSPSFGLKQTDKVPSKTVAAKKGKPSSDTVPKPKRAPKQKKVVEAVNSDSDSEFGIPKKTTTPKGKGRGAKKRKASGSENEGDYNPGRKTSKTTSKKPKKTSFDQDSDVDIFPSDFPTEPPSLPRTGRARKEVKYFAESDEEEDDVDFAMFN

Consider `COc1cccc2c1C(=O)c1c(O)c3c(c(O)c1C2=O)C[C@@](O)(C(C)=O)C[C@@H]3O[C@H]1C[C@H](N)[C@H](O)[C@H](C)O1` [DAU, daunorubicin], for which the concentration for half-maximal inhibition (IC50) (commonly the concentration needed to halve the response being measured) is 4 ± 1 µM.

For `COc1cccc2c1C(=O)c1c(O)c3c(c(O)c1C2=O)C[C@@](O)(C(C)O)C[C@@H]3O[C@H]1C[C@H](N)[C@H](O)[C@H](C)O1` (some centres unmarked) [DAU-ol, daunorubicinol], the IC50 came to 17 ± 4 µM.
